Assay results: patent US5183828A, “Polyhydroxybenzoic acid derivatives” (priority 1990, dated 1993)
Where “and” joins values, the source holds several entries; their conditions need not be identical. Equal entries are not always repeated. Structures can show the parent of a compound that is named as a salt.

What was measured:
L-1210 Leukemia = assay: activity vs L-1210 leukemia (T/C % survival time), Table 3; type: in vivo, mice; conditions: >130 significant
Description: 3,4-Dihydroxybenzamidoxime and 3,4,5-trihydroxybenzamidoxime were subjected to a further series of tests against various transplanted tumors in mice according to the following protocols:
For L-1210 lymphoid leukemia, 20 grams CDF1 or BDF1 mice […] ip with 10^5 leukemia cells. The drug was given one day after tumor inoculation continued for an additional eight days. The mean survival time for the treated animal was compared to that of the control group. In the table, column 1 gives the name of the compound, column 2 the dose levels, and column 3 treated over control percent survival time. (In other words, a figure of 175 indicates a 75% increase in survival time.)

B16 Melanoma = assay: activity vs B16 melanoma (T/C % survival), Table 4; type: in vivo, mice; conditions: nine days, >120 significant
Description: The drugs were also used to treat melanotic melanoma B16. The protocol for testing against this tumor is as follows:
0.5 ml. of a tumor homogenate prepared by homogenizing 1 g. of tumor with 10 ml. of cold balanced solution is implanted ip in groups of 10 B6 C3 F1 mice. The drug is administered daily for a total of nine days starting one day after tumor inoculation. The results are expressed as mean survival time of treated group versus control group (T/C) as a percent.

Colon 38 = assay: activity vs colon 38 (T/C % median tumor weight), Table 5; type: in vivo
Description: A compound of this invention was also tested on the solid colon tumor model, colon 38. The tumor was implanted subcutaneously and the drug injected intraperitoneally twice a day on day two (seven hours apart) and twice on day nine. The median tumor weight estimated from tumor diameter is the parameter of tumor inhibition and is measured on day 20. The median tumor weight of treated versus control=T/C percent.

[1] = scavenging of generated tyrosine free radical by pulse radiolysis
Description: Additional free radical scavenging potential of a compound of this invention was measured on a generated tyrosine free radical. There is evidence that a tyrosine free radical is formed as part of the mammalian ribonucleotide reductase enzyme during the conversion of ribonucleotides to deoxyribonucleotides--see L. Akerblom, et al. Proc. Natl. Acad. Sci. USA, 78, 2159-2163 (1981). The method for the generation of the tyrosine free radical and its destruction by a compound of this invention was accomplished by pulse radiolysis experiments at Brunel University, […] England on the Brunel 4 MeV linear accelerator using a 1.5 cm optical cell and a 200 ns pulse delivering a dose of approximately 1 krad as measured by thiocyanate dosimetry. All solutions were purged with nitrogen using a syringe-deaerating technique prior to use. The detailed description of the methodology can be found in R. L. Willson, Chemistry and Industry, 183-193 (1977).
For the generation of the tyrosine radical, sodium azide was utilized as an intermediate between the pulse radiolysis generated free electron and tyrosine. […] See also I. K. Larsen et al., Eur. J. Biochem, 125, 75-81 (1982).

P388 Leukemia = assay: activity vs P388 leukemia (T/C % survival time), Table 6; type: in vivo, mice; conditions: five treatments, >130 significant
Description: The following protocol was used:
CDF1 mice were injected ip with 10^6 cells The drug was administered in the first day after tumor inoculation and continued daily for five treatments. The mean survival time of the treated group compared to the non-treated control group equals T/C×100=T/C percent.

[2] = tested on: arachidonic acid induced ear edema; assay: arachidonic acid induced ear edema assay, Table 10; type: in vivo, Mice; conditions: Experiment 2, 2 mg total dose, topical
Description: The compounds of this invention because of their ability to scavenge free-radicals in vivo are capable of modulating inflammation as set forth in the following protocol: Mice received the test compound topically to each side of the right ear one hr prior to the inflammatory challenge, at which time they were challenged (except for the negative control) with 10 microliter of a 2 mg/20 microliter solution of arachidonic acid applied to each side of the right ear. One hour post-challenge, the animals were sacrificed, the right ears removed, and an 8 mm disc punched from each. These discs were then weighed. The following table gives the results of this experiment.

[3] = 100 mg/kg daily, listed as ethyl gallamidate.HCl, hydrochloride
[4] = 200 mg/kg daily, listed as ethyl gallamidate.HCl, hydrochloride
[5] = 400 mg/kg daily, listed as ethyl gallamidate.HCl, hydrochloride

## NC(=NO)c1ccc(O)c(O)c1 [3,4-dihydroxybenzamidoxime.HCl, 3,4-dihydroxybenzamidoximehydrochloride]
L-1210 Leukemia; 25 mg/kg
  t/c % (mean survival time): 130%
L-1210 Leukemia; 50 mg/kg
  t/c % (mean survival time): 137% and 117% and 132% and 146%
L-1210 Leukemia; 100 mg/kg
  t/c % (mean survival time): 128% and 132% and 141% and 133%
L-1210 Leukemia; 200 mg/kg
  t/c % (mean survival time): 175% and 128% and 155% and 186%
L-1210 Leukemia; 300 mg/kg
  t/c % (mean survival time): 113%
B16 Melanoma; 25 mg/kg daily
  T/C % (mean survival time): 119%
B16 Melanoma; 50 mg/kg daily
  T/C % (mean survival time): 127%
B16 Melanoma; 100 mg/kg daily
  T/C % (mean survival time): 129%
B16 Melanoma; 200 mg/kg daily
  T/C % (mean survival time): 134%
B16 Melanoma; 400 mg/kg daily
  T/C % (mean survival time): 117%
B16 Melanoma; 800 mg/kg daily
  T/C % (mean survival time): toxic
Colon 38; 800 mg/kg ip, twice on day two and twice on day nine
  T/C % (median tumor weight, day 20): 87%
Colon 38; doses lower than 800 mg/kg
  activity at lower doses: ineffective
[1]; pulse radiolysis
  rate constant (tyrosine free radical scavenging): 4.5×10^8 M^-1 S^-1
[1]; vs hydroxyurea
  times faster scavenger of tyrosine free radical than hydroxyurea: ≥ 100 times

## CCOC(=N)c1cc(O)c(O)c(O)c1 [ethyl 3,4,5-trihydroxybenzamidate-HCl, Ethyl 3,4,5-trihydroxybenzamidate hydrochloride]
B16 Melanoma; 25 mg/kg daily
  T/C % (mean survival time): 105%
B16 Melanoma; 50 mg/kg daily, listed as ethyl gallamidate.HCl, hydrochloride
  T/C % (mean survival time): 109% and 104%
B16 Melanoma; [3]
  T/C % (mean survival time): 121% and 109% and 107%
B16 Melanoma; [4]
  T/C % (mean survival time): 121% and 125% and 122%
B16 Melanoma; [5]
  T/C % (mean survival time): 124% and 156% and 137%
P388 Leukemia; 12.5 mg/kg daily
  T/C % (mean survival time): 104%
P388 Leukemia; 25 mg/kg daily
  T/C % (mean survival time): 112%
P388 Leukemia; 50 mg/kg daily
  T/C % (mean survival time): 114%
P388 Leukemia; [3]
  T/C % (mean survival time): 129% and 128%
P388 Leukemia; [4]
  T/C % (mean survival time): 139% and 123%
P388 Leukemia; [5]
  T/C % (mean survival time): 149% and 160%
[2]
  Percent Inhibition vs. positive control: 35%
[2]; positive control 19.0 ± 0.5, p = .000
  Mean Increase in Weight of Inflammed Ear (± S.E.): 12.3 ± 0.4 mg
